Laboratory results published in publication PMC9612005 (Pharmaceutics, 2022).
Values joined by “and” are separate entries in the source; they are usually repeats but may differ in a detail not shown here. Equal entries are not always repeated. Where two headings read alike, the source gives them in different places.

What was measured:
[1] = molecular target: T1, rod CNG channels (CNGA1:CNGB1a) (Bos taurus, UniProt Q00194+Q28181); assay: Patch-clamp on inside-out patches, heterotetrameric rod CNG channels expressed in Xenopus laevis oocytes; format: cell-based, bovine
T1 construct: expressed in transfected cells; host or cells: Xenopus laevis oocytes (cRNA injection, pGEMHE vector); inside-out patches
T1 sequence (Q00194 whole entry): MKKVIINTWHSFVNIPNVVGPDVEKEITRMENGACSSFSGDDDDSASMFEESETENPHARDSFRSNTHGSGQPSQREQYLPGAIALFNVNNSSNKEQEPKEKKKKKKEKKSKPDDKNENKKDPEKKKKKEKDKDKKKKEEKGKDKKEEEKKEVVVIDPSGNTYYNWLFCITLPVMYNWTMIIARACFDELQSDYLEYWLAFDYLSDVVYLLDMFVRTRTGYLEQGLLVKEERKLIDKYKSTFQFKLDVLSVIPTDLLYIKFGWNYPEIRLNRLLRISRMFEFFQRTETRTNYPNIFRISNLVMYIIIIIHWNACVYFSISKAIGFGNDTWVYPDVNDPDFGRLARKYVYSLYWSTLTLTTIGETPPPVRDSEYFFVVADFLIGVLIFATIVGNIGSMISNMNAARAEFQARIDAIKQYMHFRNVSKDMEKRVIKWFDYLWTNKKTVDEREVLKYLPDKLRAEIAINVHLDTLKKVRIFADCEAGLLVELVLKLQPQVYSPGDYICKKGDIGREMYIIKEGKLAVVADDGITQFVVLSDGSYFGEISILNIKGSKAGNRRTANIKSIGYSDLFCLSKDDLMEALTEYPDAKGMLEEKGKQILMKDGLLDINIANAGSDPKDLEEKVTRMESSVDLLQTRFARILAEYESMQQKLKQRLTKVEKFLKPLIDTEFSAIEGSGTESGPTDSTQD
T1 sequence (Q28181 whole entry): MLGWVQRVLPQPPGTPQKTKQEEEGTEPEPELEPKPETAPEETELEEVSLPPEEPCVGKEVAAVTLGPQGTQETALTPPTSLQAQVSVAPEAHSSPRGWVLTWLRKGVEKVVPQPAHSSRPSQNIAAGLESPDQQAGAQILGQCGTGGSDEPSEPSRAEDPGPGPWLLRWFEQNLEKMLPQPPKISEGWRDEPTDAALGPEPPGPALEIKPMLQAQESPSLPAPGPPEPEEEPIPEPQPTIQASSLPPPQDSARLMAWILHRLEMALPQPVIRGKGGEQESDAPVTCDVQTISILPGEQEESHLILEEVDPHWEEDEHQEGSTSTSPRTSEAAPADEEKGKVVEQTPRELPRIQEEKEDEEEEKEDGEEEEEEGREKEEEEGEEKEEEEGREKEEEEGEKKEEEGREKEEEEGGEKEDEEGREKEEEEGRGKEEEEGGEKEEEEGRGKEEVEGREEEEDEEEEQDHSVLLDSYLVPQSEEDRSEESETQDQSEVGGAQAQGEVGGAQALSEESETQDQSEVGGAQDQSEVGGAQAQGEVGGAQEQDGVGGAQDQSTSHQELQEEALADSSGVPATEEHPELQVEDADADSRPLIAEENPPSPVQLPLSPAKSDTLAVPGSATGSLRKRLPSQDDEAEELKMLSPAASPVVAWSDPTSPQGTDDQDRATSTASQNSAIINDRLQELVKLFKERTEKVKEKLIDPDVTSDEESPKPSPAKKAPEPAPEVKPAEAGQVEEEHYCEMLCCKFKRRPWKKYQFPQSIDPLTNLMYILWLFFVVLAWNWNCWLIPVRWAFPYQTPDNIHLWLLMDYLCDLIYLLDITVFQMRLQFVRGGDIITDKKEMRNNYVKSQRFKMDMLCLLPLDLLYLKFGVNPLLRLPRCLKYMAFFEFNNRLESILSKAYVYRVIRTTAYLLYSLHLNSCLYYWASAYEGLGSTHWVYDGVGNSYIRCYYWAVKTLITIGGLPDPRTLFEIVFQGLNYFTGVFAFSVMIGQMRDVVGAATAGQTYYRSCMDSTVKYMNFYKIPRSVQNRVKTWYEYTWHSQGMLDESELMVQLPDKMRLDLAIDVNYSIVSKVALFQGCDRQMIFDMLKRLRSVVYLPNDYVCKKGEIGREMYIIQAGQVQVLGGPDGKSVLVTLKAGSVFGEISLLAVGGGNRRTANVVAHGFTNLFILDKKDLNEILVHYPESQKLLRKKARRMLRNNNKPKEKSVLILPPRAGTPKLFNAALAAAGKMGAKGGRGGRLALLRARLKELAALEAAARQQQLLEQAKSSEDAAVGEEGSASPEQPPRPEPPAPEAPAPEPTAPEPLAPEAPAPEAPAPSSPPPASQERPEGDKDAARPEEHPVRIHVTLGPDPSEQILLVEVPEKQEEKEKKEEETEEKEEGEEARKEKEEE
From the text: The patch pipettes were pulled from borosilicate glass tubing (outer diameter 2.0 mm, inner diameter 1.0 mm; Hilgenberg GmbH, Malsfeld, Germany). The initial resistance of the solution-filled pipettes was 0.6–1.4 MΩ. […] For studying the activation and deactivation kinetics of CNG channels, we performed fast jumps between different ligand concentrations by means of a double-barreled θ-glass pipette mounted on a piezo-driven device, which was controlled by the computer. For measuring the time courses, the recording rate was 20 kHz. […]

[2] = molecular target: T2, cone CNG channels (CNGA3:CNGB3) (Homo sapiens, UniProt Q16281+Q9NQW8); assay: Patch-clamp on inside-out patches, heterotetrameric cone CNG channels expressed in Xenopus laevis oocytes; format: cell-based
T2 construct: expressed in transfected cells; host or cells: Xenopus laevis oocytes (cRNA injection, pGEMHE vector); inside-out patches
T2 sequence (Q16281 1-694): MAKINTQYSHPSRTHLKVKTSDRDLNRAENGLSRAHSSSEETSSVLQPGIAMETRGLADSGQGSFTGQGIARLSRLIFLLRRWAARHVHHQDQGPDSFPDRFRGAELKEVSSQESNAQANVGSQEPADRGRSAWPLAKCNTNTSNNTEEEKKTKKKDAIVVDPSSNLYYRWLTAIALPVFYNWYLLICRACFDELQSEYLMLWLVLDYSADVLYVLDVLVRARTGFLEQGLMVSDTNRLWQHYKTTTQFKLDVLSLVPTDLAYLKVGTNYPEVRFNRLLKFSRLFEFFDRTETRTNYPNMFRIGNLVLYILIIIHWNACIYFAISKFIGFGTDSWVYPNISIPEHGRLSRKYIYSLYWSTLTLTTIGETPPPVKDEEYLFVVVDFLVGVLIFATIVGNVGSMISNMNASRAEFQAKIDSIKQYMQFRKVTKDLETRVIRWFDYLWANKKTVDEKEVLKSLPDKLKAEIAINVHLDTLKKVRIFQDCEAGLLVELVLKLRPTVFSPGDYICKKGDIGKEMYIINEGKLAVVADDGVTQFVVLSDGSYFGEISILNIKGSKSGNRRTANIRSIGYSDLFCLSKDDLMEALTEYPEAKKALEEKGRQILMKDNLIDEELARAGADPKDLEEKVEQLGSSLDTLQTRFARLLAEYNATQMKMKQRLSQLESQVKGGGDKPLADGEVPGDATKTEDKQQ
T2 sequence (Q9NQW8 1-809): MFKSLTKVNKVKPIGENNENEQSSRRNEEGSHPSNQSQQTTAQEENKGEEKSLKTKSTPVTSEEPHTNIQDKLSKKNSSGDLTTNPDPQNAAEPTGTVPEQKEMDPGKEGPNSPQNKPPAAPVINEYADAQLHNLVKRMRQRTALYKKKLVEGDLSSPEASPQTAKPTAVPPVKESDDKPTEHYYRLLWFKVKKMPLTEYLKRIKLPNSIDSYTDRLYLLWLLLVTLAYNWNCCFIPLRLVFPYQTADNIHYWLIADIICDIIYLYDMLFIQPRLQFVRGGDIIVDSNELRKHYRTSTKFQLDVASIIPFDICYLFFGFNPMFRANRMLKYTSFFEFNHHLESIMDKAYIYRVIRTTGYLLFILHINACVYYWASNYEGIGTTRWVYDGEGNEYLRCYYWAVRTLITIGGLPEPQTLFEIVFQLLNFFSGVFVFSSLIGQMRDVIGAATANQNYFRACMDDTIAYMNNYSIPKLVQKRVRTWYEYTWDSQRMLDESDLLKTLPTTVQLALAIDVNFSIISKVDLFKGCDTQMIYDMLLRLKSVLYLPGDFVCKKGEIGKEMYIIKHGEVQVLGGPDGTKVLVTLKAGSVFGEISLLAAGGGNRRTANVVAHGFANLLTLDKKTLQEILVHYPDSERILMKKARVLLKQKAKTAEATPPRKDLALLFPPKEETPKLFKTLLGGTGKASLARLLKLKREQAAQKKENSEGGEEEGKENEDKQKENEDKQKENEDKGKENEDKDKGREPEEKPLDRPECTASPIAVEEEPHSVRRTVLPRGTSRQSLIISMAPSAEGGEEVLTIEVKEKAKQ
From the text: The patch pipettes were pulled from borosilicate glass tubing (outer diameter 2.0 mm, inner diameter 1.0 mm; Hilgenberg GmbH, Malsfeld, Germany). The initial resistance of the solution-filled pipettes was 0.6–1.4 MΩ. […] For studying the activation and deactivation kinetics of CNG channels, we performed fast jumps between different ligand concentrations by means of a double-barreled θ-glass pipette mounted on a piezo-driven device, which was controlled by the computer. For measuring the time courses, the recording rate was 20 kHz.
The activation and deactivation time courses were determined by fitting the respective current traces with single exponentials:(3) I(t)=A∗exp[−t/τ] where A is the amplitude, t the time, and τ the time constant for either activation or deactivation.

[3] = cGMP + 50 µM of the cGMP analogue

Row | SMILES | effect on rod channels ([1]; 0.1 µM) | potency compared to cGMP, rod channel ([1]; higher potency than cGMP) | H (Hill coefficient), rod CNG channels ([1]; ligand alone) | EC50 ([1]; ligand alone, concentration-activation relationship, Hill fit, read-out: EC50, rod CNG channels) [nM] | cone CNG-channel activation ([2]; 0.1 µM) | potency compared to cGMP, cone channel ([2]; higher potency than cGMP) | H (Hill coefficient), cone CNG channels ([2]; ligand alone) | EC50 ([2]; ligand alone, concentration-activation relationship, Hill fit, read-out: EC50, cone CNG channels) [nM] | EC50 [1] [nM] | decrease in the apparent affinity of rod CNG channels (increase of cGMP EC50) ([1]; 50 µM analogue) | H (Hill coefficient), rod CNG channels [1, 3] | EC50 [2] [nM] | decrease in the apparent affinity of cone CNG channels ([2]; 50 µM analogue) | H (Hill coefficient), cone CNG channels [2, 3]
1 | Nc1nc2c(nc(Sc3ccc(Cl)cc3)n2[C@@H]2O[C@@H]3COP(=O)(O)O[C@H]3[C@H]2O)c(=O)[nH]1 [8-pCPT-cGMP] | almost no effect on rod channels | ~ 63 times | 2.2 | 630 | ~ 90% | ~ 138 times | 1.74 | 80 |  |  |  |  |  | 
2 | O=c1c2nc(Br)n([C@@H]3O[C@@H]4CO[P@@](=O)(S)O[C@H]4[C@H]3O)c2nc2[nH]c(-c3ccccc3)cn12 [Rp-8-Br-PET-cGMPS] |  |  |  |  |  |  |  |  | 450 | ~ 4.9 fold and ~ 5 fold | 1.90 | 4400 | ~ 3.2 fold | 1.97
